# Test results reported in PubChem BioAssay AID1582.
# Results filed as inconclusive are left out.
# Tested on: S. cerevisiae PHO84-LacZ reporter, HDAC inhibition
# Assay: HDAC inhibitors via yeast reporter, S. cerevisiae, PHO84-LacZ (AID 1582)
row,SMILES,EC50
1,c1ccc2[nH]c(-c3cscn3)nc2c1,148 µM
2,CCC(C)[C@H]1O[C@]2(C=C[C@@H]1C)C[C@@H]1C[C@@H](C/C=C(\C)[C@@H](OC3C[C@H](OC)C(O[C@H]4C[C@H](OC)[C@@H](O)[C@H](C)O4)[C@H](C)O3)[C@@H](C)/C=C/C=C3\CO[C@@H]4[C@H](O)C(C)=C[C@@H](C(=O)O1)[C@]34O)O2 (some centres not stated),66 µM
3,CC(C(=O)O)c1ccc(N2Cc3ccccc3C2=O)cc1 (configuration not stated),50 µM
4,N#Cc1ccc2c(c1)N(CCCN1CCC(O)CC1)c1ccccc1S2,148 µM
5,COc1cc(C)c2c(=O)cc(-c3ccccc3)oc2c1,60 µM
6,NCCCCN,125 µM
7,CN(Cc1cnc2nc(N)nc(N)c2n1)c1ccc(C(=O)N[C@@H](CCC(=O)O)C(=O)O)cc1,78 µM
